These are literature values, as cited in publication PMC5459446, “A phase I study of single-agent perifosine for recurrent or refractory pediatric CNS and solid tumors” (PLoS ONE, 2017).

Details of the data set: method as in PMID 25740692. The note with it: oral, adult non-tumor bearing rhesus monkeys, cerebrospinal fluid; cited from earlier work.

Structures can show the parent of a compound that is named as a salt.

As to `CCCCCCCCCCCCCCCCCCOP(=O)([O-])OC1CC[N+](C)(C)CC1` [perifosine, 1,1-Dimethyl-4-[[(octadecyloxy)hydroxyphosphinyl]oxy]-piperidinium inner salt], the CNS penetration result is “limited”.
